According to patent publication US10806694B2, “Nanoparticles for photodynamic therapy, X-ray induced photodynamic therapy, radiotherapy, radiodynamic therapy, chemotherapy, immunotherapy, and any combination thereof” (The University of Chicago, priority 2014, dated 2020):

How the values were obtained:
[1] = Fluorescence lifetime by Time-Correlated Single Photon Counting; fluorescence intensity; assay type: physicochemical
Protocol: The fluorescence spectra of H2DBP ligand and DBP-UiO NMOF were taken on a spectrofluorophotometer (RF-5301PC, Shimadzu Corporation, Kyoto, Japan).
Time-domain lifetimes were measured on a ChronosBH lifetime fluorimeter (ISS, Inc., Champaign, Ill., United States of America) using Time-Correlated Single Photon Counting (TCSPC) methods. The fluorimeter contained Becker-Hickl SPC-130 detection electronics and an HPM-100-40 Hybrid PMT detector. Tunable picosecond pulsed excitation was provided by a Fianium SC400-2 supercontiuum laser source with integrated pulse picker and AOTF. Emission wavelengths were selected with bandpass filters (Semrock and Chroma). The Instrument Response Function (IRF) was measured to be approximately 120 ps FWHM in a 1% scattering solution of Ludox LS colloidal silica. Lifetimes were fit via a forward convolution method in the Vinci control and analysis software.
Fluorescence spectra of suspensions of Hf-MOF (0.04 mM of L ligand) in water, DMF, and THF were taken with an excitation wavelength of 368.8 nm. […] Fluorescence lifetimes of Hf-MOF, Zr-MOF, and H2L suspensions in water were also examined.

CT26 cells [2] = test: Apoptosis after PDT, Annexin V/dead cell kit, flow cytometry; assay type: cell-based, murine; conditions: 5 μM
Protocol: (§1) CT26 cells were incubated with 5 μM DBC-UiO or H2DBC followed by light irradiation at 0.1 W/cm^2 for 15 min (90 J/cm^2). The apoptosis induced by PDT treatment was determined with the Alexa Fluor 488 Annexin V/dead cell apoptosis kit by flow cytometry. […] Calreticulin (CRT) is a distinct biomarker exposed on the surface of cells undergoing ICD. The CRT expression was determined by flow cytometry and immunofluorescence to assess the ICD induced by DBC-UiO induced PDT. CT26 cells were treated with 5 μM DBC-UiO or H2DBC followed by light irradiation at 0.1 W/cm^2 for 15 min (90 J/cm^2). For flow cytometry analysis, cells were collected and stained with Alexa Fluor 488-CRT antibody and propidium iodide (PI). The fluorescence intensity of stained cells was gated on PI-negative cells. For immunostaining analysis, the cells were stained with AlexaFluor 488-CRT conjugated antibody and DAPI nuclei stain, and observed using confocal laser scanning microscopy (CLSM).

CT26 cells [3] = test: Calreticulin (CRT) surface expression after PDT (immunogenic cell death); assay type: cell-based, murine; conditions: 5 μM
Protocol: as §1

[4] = test system: human head and neck cancer cells SQ20B; test: In vitro PDT cytotoxicity (MTS); assay type: cell-based; conditions: 5-100 μM ligand, 640 nm LED 100 mW/cm^2, 15 min (90 J/cm^2) or 30 min (180 J/cm^2)
Protocol: The cytotoxicity of DBP-UiO and H2DBP was evaluated in human head and neck cancer cells SQ20B which are resistant to cisplatin and conventional radiotherapy. SQ20B cells were seeded on 96-well plates at 2000 cells/well. The cells were treated with DBP-UiO and H2DBP at various ligand concentrations (5, 10, 20, 50 and 100 μM base on ligand concentrations) after a 24-h incubation. A further incubation of 4 h was allowed, followed by replacing the culture medium with 100 μL of fresh DMEM/F12 medium. The cells were irradiated with LED light (640 nm) at 100 mW/cm^2 for 15 min (total light dose 90 J/cm^2) or 30 min (total light dose 180 J/cm^2), respectively. The cells without irradiation treatment served as controls. The cells were further incubated to achieve a total incubation time of 72 h with DBP-UiO or H2DBP. The cell viability was detected by (3-(4,5-dimethylthiazol-2-yl)-5-(3-carboxymethoxyphenyl)-2-(4-sulfophenyl)-2H-tetra-zolium) (MTS) assay (Promega, Madison, Wis., United States of America).
To further confirm the PDT efficacy of DBP-UiO, SQ20B cancer cells were treated with H2DBP or DBP-UiO at various concentrations (5, 10, 20, 50 and 100 μM based on ligand concentrations), the cells were irradiated with LED light (640 nm, 100 mW/cm^2) for 15 min (total light dose 90 J/cm^2) or 30 min (total light dose 180 J/cm^2), respectively.

[5] = test system: SQ20B subcutaneous xenograft murine models; test: In vivo PDT efficacy; design: species or system mice; conditions: 3.5 mg/kg intratumoral, 180 J/cm^2, single treatment
Protocol: The PDT efficacy of DBP-UiO was investigated using SQ20B subcutaneous xenograft murine models. Tumor bearing mice were established by subcutaneous inoculation of SQ20B cell suspension (5×10^6 cells per mouse) into the right flank region of 6-week athymic female nude mice. Three groups were included for comparison: PBS as control, H2DBP, and DBP-UiO. When tumors reached 100 mm^3, PBS, H2DBP, and DBP-UiO were intratumorally injected to animals at a DBP dose of 3.5 mg/kg. At 12 h post-injection, mice were anesthetized with 2% (v/v) isoflurane and tumors were irradiated with a 640 nm LED for 30 min. The light intensity was measured as 100 mW/cm^2, and the total light dose was 180 J/cm^2. Both injection and PDT were performed once.
To evaluate the therapeutic efficacy, tumor growth and body weight evolution were monitored. The tumor size was measured with a digital caliper every day. Tumor volumes were calculated as follows: (width^2×length)/2. Finally, all mice were sacrificed on Day 8, and the excised tumors were photographed and weighed. Tumors were fixed with formalin. Paraffin-embedded 5 μm tumor sections were stained with hematoxylin and erosin (H&E) and observed with light microscopy (Pannoramic Scan Whole Slide Scanner, Perkin Elmer, Waltham, Mass., United States of America).
In vivo experiments on SQ20B subcutaneous xenograft murine models were carried out. […]

| Compound | μ1 ([1]; in DMF) [ns] | μ1 ([1]; in HBSS) [ns] | μ2 ([1]; in HBSS) [ns] | τ ([1]; in HBSS) [ns] | apoptosis or necrosis (CT26 cells [2]; in the dark) | apoptosis (CT26 cells [2]; light irradiation 90 J/cm^2) | surface CRT expression (CT26 cells [3]; light irradiation 90 J/cm^2) | surface CRT expression (CT26 cells [3]; without light irradiation) | μ1 ([1]; aq) [ns] | μ2 ([1]; aq) [ns] | τ ([1]; aq) [ns] | PDT efficacy (cell viability) [4] | tumor growth [5] |
| --- | --- | --- | --- | --- | --- | --- | --- | --- | --- | --- | --- | --- | --- |
| 5, 15-di(p-benzoato)chlorin [H2DBC] | 8.27 | 5.80 | 8.77 | 8.15 | No apoptosis or necrosis was observed | significant amounts of cells underwent apoptosis | significant amounts of CRT were detected | no surface CRT expression |  |  |  |  |  |
| O=C(O)c1ccc(-c2c3nc(cc4ccc([nH]4)c(-c4ccc(C(=O)O)cc4)c4nc(cc5ccc2[nH]5)C=C4)C=C3)cc1 [H2DBP, 5,15-di(p-benzoato)porphyrin] | 11.3 |  |  |  |  |  |  |  | 12.4 | 7.86 | 10.9 | moderate PDT efficacy only at 20 μM dose with 30 min light irradiation | slightly suppressed after PDT, however accelerated after 5 days and exhibited no difference to the control group at the endpoint |
